Patent US9809574B2, “Isoindoline or isoquinoline compounds, a process for their preparation and pharmaceutical compositions containing them” (LES LABORATOIRES SERVIER, priority 2013, dated 2017)

Legend:
[1] = test system: RS4; 11 leukaemia cell line; assay: In vitro cytotoxicity, Microculture Tetrazolium Assay (MTT); type: cell-based; settings: Homo sapiens, 11 cells exposed for 48 hours
Procedure: The cytotoxicity studies were carried out on the RS4; 11 leukaemia cell line and on H146 small Cell Lung Carcinoma cell line. The cells are distributed onto microplates and exposed to the test compounds for 48 hours. The cell viability is then quantified by a colorimetric assay, the Microculture Tetrazolium Assay (Cancer Res., 1987, 47, 939-942).

Bcl-2 protein = Bcl-2 protein (histag-Bcl-2, UniProtKB P10415) (Homo sapiens (Human), UniProt P10415); assay: Inhibition of Bcl-2 by the fluorescence polarisation technique; type: binding; settings: fluorescence polarisation test; incubation for 2 hours; read-out: IC50 (nM) Bcl-2 FP
Sequence of Bcl-2 protein (P10415 whole entry): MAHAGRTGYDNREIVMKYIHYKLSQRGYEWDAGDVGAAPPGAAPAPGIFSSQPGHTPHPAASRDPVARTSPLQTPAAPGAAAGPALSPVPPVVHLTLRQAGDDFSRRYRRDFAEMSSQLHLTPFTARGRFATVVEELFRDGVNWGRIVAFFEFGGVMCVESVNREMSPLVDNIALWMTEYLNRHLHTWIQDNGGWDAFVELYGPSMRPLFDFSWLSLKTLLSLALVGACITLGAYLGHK
Description: For partial inhibitors, the percentage fluorescence polarisation inhibition for a given concentration of the test compound is indicated.

Row | IC50 (Bcl-2 protein) [nM] | SMILES | IC50 [1] [nM]
1 | 4.2 | C[C@@H]1Cc2ccccc2CN1C(=O)c1cc2c(cc1-c1cc(C(=O)N(C)c3ccc(O)cc3)c3n1CCCC3)CCN(C(=O)Oc1ccc(N)cc1)C2 [Example 58, 4-Aminophenyl 6-{1-[(4-hydroxyphenyl)(methyl)carbamoyl]-5,6,7,8-tetrahydroindolizin-3-yl}-7-[(3R)-3-methyl-1,2,3,4-tetrahydroisoquinoline-2-carbonyl]-1,2,3,4-tetrahydroisoquinoline-2-carboxylate] | 3.3
2 | 4.9 | C[C@@H]1Cc2ccccc2CN1C(=O)c1cc2c(cc1-c1cc(C(=O)N(C)c3ccc(O)cc3)c3n1CCCC3)CCN(C(=O)Cc1ccc(N3CCN(C)CC3)cc1)C2 [Example 97, N-(4-Hydroxyphenyl)-N-methyl-3-{7-[(3R)-3-methyl-1,2,3,4-tetrahydroisoquinoline-2-carbonyl]-2-{2-[4-(4-methylpiperazin-1-yl)phenyl]acetyl}-1,2,3,4-tetrahydroisoquinolin-6-yl}-5,6,7,8-tetrahydroindolizine-1-carboxamide] | 15
3 | 3.7 | C[C@@H]1Cc2ccccc2CN1C(=O)c1cc2c(cc1-c1cc(C(=O)N(C)c3ccc(O)cc3)c3n1CCCC3)CCN(C(=O)Oc1ccccc1)C2 [Example 46, Phenyl 6-{1-[(4-hydroxyphenyl)(methyl)carbamoyl]-5,6,7,8-tetrahydroindolizin-3-yl}-7-[(3R)-3-methyl-1,2,3,4-tetrahydroisoquinoline-2-carbonyl]-1,2,3,4-tetrahydroisoquinoline-2-carboxylate] | 2.8
4 | 3.6 | Cc1c(C(=O)N(C)c2ccc(O)cc2)cc(-c2cc3c(cc2C(=O)N2Cc4ccccc4C[C@H]2C)CN(C(=O)Oc2ccc(CCC(=O)N(C)C)cc2)CC3)n1C [Example 804, 4-[2-(Dimethylcarbamoyl)ethyl]phenyl 6-{4-[(4-hydroxyphenyl)(methyl)carbamoyl]-1,5-dimethyl-1H-pyrrol-2-yl}-7-[(3R)-3-methyl-1,2,3,4-tetrahydroisoquinoline-2-carbonyl]-1,2,3,4-tetrahydroisoquinoline-2-carboxylate] | 2.2
5 | 14 | CCCCN(CCCC)C(=O)c1cc(-c2cc3c(cc2C(=O)N2Cc4ccccc4C[C@H]2C)CN(C(=O)Cc2ccccc2)CC3)n(C)c1C [Example 164, N,N-Dibutyl-1,2-dimethyl-5-{7-[(3R)-3-methyl-1,2,3,4-tetrahydroisoquinoline-2-carbonyl]-2-(2-phenylacetyl)-1,2,3,4-tetrahydroisoquinolin-6-yl}-1H-pyrrole-3-carboxamide] | > 150
6 | 21 | COc1ccc(CCCN2Cc3cc(C(=O)N4Cc5ccccc5C[C@H]4C)c(-c4cc(C(=O)N(C)c5ccc(O)cc5)c(C)n4C)cc3C2)cc1 [Example 116, N-(4-Hydroxyphenyl)-5-{2-[3-(4-methoxyphenyl)propyl]-6-[(3R)-3-methyl-1,2,3,4-tetrahydroisoquinoline-2-carbonyl]-2,3-dihydro-1H-isoindol-5-yl}-N,1,2-trimethyl-1H-pyrrole-3-carboxamide] | 181
7 | 3.6 | C[C@@H]1Cc2ccccc2CN1C(=O)c1cc2c(cc1-c1cc(C(=O)N(C)c3ccc(O)cc3)c3n1CCCC3)CCN(C(=O)Cc1ccc(CN3CCN(C)CC3)cc1)C2 [Example 113, N-(4-Hydroxyphenyl)-N-methyl-3-{7-[(3R)-3-methyl-1,2,3,4-tetrahydroisoquinoline-2-carbonyl]-2-(2-{4-[(4-methylpiperazin-1-yl)methyl]phenyl}acetyl)-1,2,3,4-tetrahydroisoquinolin-6-yl}-5,6,7,8-tetrahydroindolizine-1-carboxamide] | 25
8 | 6.1 | C[C@@H]1Cc2ccccc2CN1C(=O)c1cc2c(cc1-c1cc(C(=O)N(C)c3ccc(O)cc3)c3n1CCCC3)CCN(C(=O)N(C)c1ccccc1)C2 [Example 74, 6-{1-[(4-Hydroxyphenyl)(methyl)carbamoyl]-5,6,7,8-tetrahydroindolizin-3-yl}-N-methyl-7-[(3R)-3-methyl-1,2,3,4-tetrahydroisoquinoline-2-carbonyl]-N-phenyl-1,2,3,4-tetrahydroisoquinoline-2-carboxamide] | 94
9 | 5.9 | C[C@@H]1Cc2ccccc2CN1C(=O)c1cc2c(cc1-c1cc(C(=O)N(C)c3ccc(O)cc3)c3n1CCCC3)CN(C(=O)Nc1ccccc1)C2 [Example 60, 5-{1-[(4-Hydroxyphenyl)(methyl)carbamoyl]-5,6,7,8-tetrahydroindolizin-3-yl}-6-[(3R)-3-methyl-1,2,3,4-tetrahydroisoquinoline-2-carbonyl]-N-phenyl-2,3-dihydro-1H-isoindole-2-carboxamide] | 46
10 | 4.3 | Cc1c(C(=O)N(C)c2ccccc2)cc(-c2cc3c(cc2C(=O)N2Cc4ccccc4C[C@H]2C)CN(C(=O)Cc2ccc(C#N)cc2)CC3)n1C [Example 150, 5-{2-[2-(4-Cyanophenyl)acetyl]-7-[(3R)-3-methyl-1,2,3,4-tetrahydroisoquinoline-2-carbonyl]-1,2,3,4-tetrahydroisoquinolin-6-yl}-N,1,2-trimethyl-N-phenyl-1H-pyrrole-3-carboxamide] | 16
11 | 95 | CN(C(=O)c1cc(-c2cc3c(cc2C(=O)N2Cc4ccccc4C[C@H]2CN2CCOCC2)CN(C(=O)OC(C)(C)C)C3)n2c1CCCC2)c1ccc(O)cc1 [Example 6, tert-Butyl 5-{1-[(4-hydroxyphenyl)(methyl)carbamoyl]-5,6,7,8-tetrahydroindolizin-3-yl}-6-[(3S)-3-(morpholin-4-ylmethyl)-1,2,3,4-tetrahydroisoquinoline-2-carbonyl]-2,3-dihydro-1H-isoindole-2-carboxylate] | > 1880
12 | 3.1 | Cc1c(C(=O)N(C)c2ccc(O)cc2)cc(-c2cc3c(cc2C(=O)N2Cc4ccccc4C[C@H]2CN2CCN(C)CC2)CN(C(=O)Cc2ccccc2)CC3)n1C [Example 778, N-(4-Hydroxyphenyl)-N,1,2-trimethyl-5-{7-[(3S)-3-[(4-methylpiperazin-1-yl)methyl]-1,2,3,4-tetrahydroisoquinoline-2-carbonyl]-2-(2-phenylacetyl)-1,2,3,4-tetrahydroisoquinolin-6-yl}-1H-pyrrole-3-carboxamide] | 52
13 | 23 | CN(C(=O)c1cc(-c2cc3c(cc2C(=O)N2Cc4ccccc4C[C@H]2CN2CCOCC2)CN(S(=O)(=O)Cc2ccccc2)C3)n2c1CCCC2)c1ccc(O)cc1 [Example 38, N-(4-Hydroxyphenyl)-N-methyl-3-{6-[(3S)-3-(morpholin-4-ylmethyl)-1,2,3,4-tetrahydroisoquinoline-2-carbonyl]-2-phenylmethanesulfonyl-2,3-dihydro-1H-isoindol-5-yl}-5,6,7,8-tetrahydroindolizine-1-carboxamide] | 532
14 | 19 | CC(Cc1ccc(Cl)cc1)C(=O)N1Cc2cc(C(=O)N3Cc4ccccc4C[C@H]3C)c(-c3cc(C(=O)N(C)c4ccc(O)cc4)c4n3CCCC4)cc2C1 (stereo partly drawn) [Example 24, 3-(2-{2-[(4-Chlorophenyl)methyl]propanoyl}-6-[(3R)-3-methyl-1,2,3,4-tetrahydroisoquinoline-2-carbonyl]-2,3-dihydro-1H-isoindol-5-yl)-N-(4-hydroxyphenyl)-N-methyl-5,6,7,8-tetrahydroindolizine-1-carboxamide] | > 150

Row | SMILES | IC50 (Bcl-2 protein) [nM] | IC50 [1] [nM]
15 | Cc1cccc(OC(=O)N2CCc3cc(-c4cc(C(=O)N(C)c5ccc(O)cc5)c5n4CCCC5)c(C(=O)N4Cc5ccccc5C[C@H]4CN4CCOCC4)cc3C2)c1 [Example 99, 3-Methylphenyl 6-{1-[(4-hydroxyphenyl)(methyl)carbamoyl]-5,6,7,8-tetrahydroindolizin-3-yl}-7-[(3S)-3-(morpholin-4-ylmethyl)-1,2,3,4-tetrahydroisoquinoline-2-carbonyl]-1,2,3,4-tetrahydroisoquinoline-2-carboxylate] | 5.5 | 13
16 | CN(C(=O)c1cc(-c2cc3c(cc2C(=O)N2Cc4ccccc4C[C@H]2CN2CCOCC2)CN(C(=O)Oc2ccc(C(F)(F)F)cc2)CC3)n2c1CCCC2)c1ccc(O)cc1 [Example 124, 4-(Trifluoromethyl)phenyl 6-{1-[(4-hydroxyphenyl)(methyl)carbamoyl]-5,6,7,8-tetrahydroindolizin-3-yl}-7-[(3S)-3-(morpholin-4-ylmethyl)-1,2,3,4-tetrahydroisoquinoline-2-carbonyl]-1,2,3,4-tetrahydroisoquinoline-2-carboxylate] | 12 | 50
17 | Cc1ccc(OC(=O)N2CCc3cc(-c4cc(C(=O)N(C)c5ccccc5)c(C)n4C)c(C(=O)N4Cc5ccccc5C[C@H]4CN4CCOCC4)cc3C2)cc1 [Example 591, 4-Methylphenyl 6-{1,5-dimethyl-4-[methyl(phenyl)carbamoyl]-1H-pyrrol-2-yl}-7-[(3S)-3-(morpholin-4-ylmethyl)-1,2,3,4-tetrahydroisoquinoline-2-carbonyl]-1,2,3,4-tetrahydroisoquinoline-2-carboxylate] | 2.5 | 7
18 | Cc1c(C(=O)N(C)c2ccc(O)cc2)cc(-c2cc3c(cc2C(=O)N2Cc4ccccc4C[C@H]2CN2CCOCC2)CN(C(=O)Oc2ccc(Br)cc2)CC3)n1C [Example 784, 4-Bromophenyl 6-{4-[(4-hydroxyphenyl)(methyl)carbamoyl]-1,5-dimethyl-1H-pyrrol-2-yl}-7-[(3S)-3-(morpholin-4-ylmethyl)-1,2,3,4-tetrahydroisoquinoline-2-carbonyl]-1,2,3,4-tetrahydroisoquinoline-2-carboxylate] | 5.1 | 2.9
